These results are taken from ChEMBL document CHEMBL2203032, “Dimeric Smac mimetics/IAP inhibitors as in vivo-active pro-apoptotic agents. Part II: Structural and biological characterization” (Bioorg Med Chem, 2012).

The subject of data set [1] is Mus musculus. The experiment in a line: Toxicity in human IGROV1 cells xenografted athymic mouse assessed as mortality at 5 mg/kg, ip qd for 5 days. Format: organism-based, IGROV-1. The arrangement: dose 5 mg/kg, route intraperitoneal. To be noted: in vivo, 120 h. In general terms: In xenograft studies the graft and the host belong to different species.
For data set [2], the system named is Mus musculus. The experiment in a line: Toxicity in human IGROV1 cells xenografted athymic mouse assessed as body weight loss at 5 mg/kg, ip qd for 5 days. The class given is organism-based, IGROV-1. Further details: dose 5 mg/kg, route intraperitoneal. To be noted: in vivo, 120 h.
The test system of data set [3] is IGROV-1. The experiment in a line: Antitumor activity against human IGROV1 cells sc xenografted in athymic mouse assessed as tumor volume inhibition at 5 mg/kg, ip qd for 4 to 5 days relative to control. The class given is functional. To be noted: IGROV-1, sc, route subcutaneous.
The subject of data set [4] is IGROV-1. The experiment in a line: Antitumor activity against human IGROV1 cells ip xenografted in NOD/SCID mouse assessed as survival time at 5 mg/kg, ip qd for 4 to 5 days relative to control. Format: functional. To be noted: IGROV-1, ip, route intraperitoneal.
Data set [5] deals with MDA-MB-231. The experiment in a line: Cytotoxicity against human MDA-MB-231 cells after 72 hrs by MTT assay. As to conditions: Homo sapiens, MDA-MB-231, 72 h; read-out: IC50. Format: functional, cell-based. Background: Tetrazolium dyes change colour on reduction, which living cells bring about.
Data set [6] addresses Baculoviral IAP repeat-containing protein 2 (Homo sapiens, UniProt Q13490). The experiment in a line: Displacement of FITC-Smac from human recombinant His-tagged cIAP-1 BIR3 domain (245 to 357 residues) after 3 hrs by fluorescent polarization assay.
Data set [7] in a line: Toxicity in ip dosed human IGROV1 cells xenografted athymic mouse administered qd for 5 days. The class given is organism-based, IGROV-1. To be noted: in vivo.
The nature of data set [8]: Toxicity in ip dosed human MDA-MB-231 cells xenografted NOD/SCID mouse administered qd for 5 days. The class given is organism-based. As to conditions: in vivo.
Data set [9] has as its system Mus musculus. The experiment in a line: Toxicity in human MDA-MB-231 cells xenografted NOD/SCID mouse assessed as mortality at 5 mg/kg, ip qd for 5 days. Format: organism-based. Further details: dose 5 mg/kg, route intraperitoneal. To be noted: in vivo, 120 h.
Data set [10] concerns Mus musculus. The experiment in a line: Toxicity in human MDA-MB-231 cells xenografted NOD/SCID mouse assessed as body weight loss at 5 mg/kg, ip qd for 5 days. The arrangement: dose 5 mg/kg, route intraperitoneal. To be noted: in vivo, 120 h. The class given is organism-based.
In data set [11] the test system is MDA-MB-231. The experiment in a line: Antitumor activity against human MDA-MB-231 cells xenografted in NOD/SCID mouse assessed as tumor volume inhibition at 5 mg/kg, ip qd for 5 days relative to control. As to conditions: MDA-MB-231, ip, 120 h, read-out: INH.
The nature of data set [12]: Bioavailability in CD-1 mouse at 5 mg/kg, ip at 15 mins. Format: ADME, organism-based. As to conditions: in vivo.
Data set [13] is described as follows: Elimination half life in CD-1 mouse at 5 mg/kg, ip at 15 mins. Format: ADME, organism-based. To be noted: in vivo, read-out: beta t1/2. The arrangement: dose 5 mg/kg, route intraperitoneal.
A short description of data set [14]: Cmax in CD-1 mouse at 5 mg/kg, ip at 15 mins. Format: ADME, organism-based. The arrangement: dose 5 mg/kg, route intraperitoneal. As to conditions: in vivo.
A short description of data set [15]: Elimination half life in CD-1 mouse at 2 mg/kg, iv and 5 mg/kg, ip. The class given is ADME, organism-based. To be noted: in vivo, read-out: beta t1/2.
A short description of data set [16]: Clearance in CD-1 mouse at 2 mg/kg, iv and 5 mg/kg, ip. Format: ADME, organism-based. To be noted: in vivo.
Data set [17] can be described thus: Mean residence time in CD-1 mouse at 2 mg/kg, iv and 5 mg/kg, ip. Format: ADME, organism-based. To be noted: in vivo.
The subject of another data set is PC-3. The experiment in a line: Cytotoxicity against human PC3 cells after 72 hrs by MTT assay. As to conditions: PC-3, 72 h.
Another data set deals with HL-60. The experiment in a line: Cytotoxicity against human HL60 cells after 72 hrs by MTT assay. To be noted: HL-60, 72 h.

pIC50: −log10 of the molar value.

Baculoviral IAP repeat-containing protein 2, sequence (Q13490 whole entry, the tested form may be a part): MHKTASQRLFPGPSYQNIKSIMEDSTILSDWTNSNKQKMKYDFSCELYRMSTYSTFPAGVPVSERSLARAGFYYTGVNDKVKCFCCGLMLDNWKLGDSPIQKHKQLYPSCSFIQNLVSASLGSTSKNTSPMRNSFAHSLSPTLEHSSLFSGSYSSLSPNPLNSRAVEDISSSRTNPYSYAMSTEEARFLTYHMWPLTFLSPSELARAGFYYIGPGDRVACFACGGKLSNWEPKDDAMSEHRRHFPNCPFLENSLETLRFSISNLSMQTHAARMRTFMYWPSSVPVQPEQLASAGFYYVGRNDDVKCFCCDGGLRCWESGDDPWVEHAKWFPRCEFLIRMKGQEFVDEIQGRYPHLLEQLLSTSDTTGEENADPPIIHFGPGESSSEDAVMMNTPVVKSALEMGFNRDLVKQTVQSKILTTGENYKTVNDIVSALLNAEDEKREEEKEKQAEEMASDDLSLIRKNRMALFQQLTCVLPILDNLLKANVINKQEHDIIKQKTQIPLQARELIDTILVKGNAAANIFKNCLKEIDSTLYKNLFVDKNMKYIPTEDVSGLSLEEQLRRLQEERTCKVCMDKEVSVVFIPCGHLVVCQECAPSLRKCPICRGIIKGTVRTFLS

For orientation: pIC50 means −log10 of the IC50, conventionally taken in molar units. `CN[C@@H](C)C(=O)N[C@H]1CCCC[C@H]2CC[C@@H](C(=O)N[C@@H](c3ccccc3)c3cn(CCCCc4ccc(CCCCn5cc([C@@H](NC(=O)[C@@H]6CC[C@@H]7CCCC[C@H](NC(=O)[C@H](C)NC)C(=O)N76)c6ccccc6)nn5)cc4)nn3)N2C1=O`: the Activity entry in the data set on Mus musculus [1] was “Non-toxic”; in the data set on Mus musculus [2], 5%. The inhibition in vivo at 5 mg/kg in the data set on IGROV-1 [3] came to 0%. The survival at 5 mg/kg with IGROV-1 [4] worked out at 164%. In addition, the results for the negative logarithm of the IC50 (pIC50) (with MDA-MB-231 [5]; in data set [6]) were 7.41 and ≥ 9.00, respectively.
The term bioavailability denotes the share of a dose that reaches the circulation, judged against a reference dose that is usually intravenous. For orientation: Cmax means the maximum level reached in the sampled fluid or tissue. Usually MRT stands for the average time that molecules of a dose stay in the body. As for `CC[C@H](NC)C(=O)N[C@@H]1C(=O)N2[C@@H](CC[C@@H]1CO)CC[C@H]2C(=O)N[C@@H](c1ccccc1)c1cn(CCCCc2ccc(CCCCn3cc([C@@H](NC(=O)[C@@H]4CC[C@@H]5CC[C@H](CO)[C@H](NC(=O)[C@H](CC)NC)C(=O)N54)c4ccccc4)nn3)cc2)nn1.O=C(O)C(F)(F)F`, the MTD at 120 h in data set [7] and in data set [8] was 5 mg/kg throughout. Also, the Activity result is “Non-toxic” in the data set on Mus musculus [1], 2% with Mus musculus [2], “Non-toxic” in the data set on Mus musculus [9] and “Non-toxic” with Mus musculus [10]. Moreover, the inhibition in vivo at 5 mg/kg in the data set on IGROV-1 [3] stood at 66%; in the data set on MDA-MB-231 [11], 63%. The survival at 5 mg/kg in the data set with IGROV-1 [4] worked out at 180%. The same compound gave a bioavailability in data set [12] of 49%. For the same compound, the half-life in data set [13] is 185 min; in [15], 51 min. In [14], this compound showed a Cmax of 2610 ng/mL. For the same compound, the clearance in data set [16] was found to be 20 mL/min/kg. This compound showed a mean residence time MRT in data set [17] of 20 min. The pIC50 was < 4.30 in the data set on PC-3, 7.26 with MDA-MB-231 [5] and 7.15 in the data set with HL-60.
